Data published in patent publication US20160200757A1, “TYLOSIN A ANALOGS AND DERIVATIVES” (AbbVie Inc., priority 2014, published 2016).
Converted amounts (≈) assume the structure as drawn.

How the values were obtained:
[1] = Pharmacokinetic study, oral dosing in Sprague-Dawley rats (AUC/D); type: in vivo; settings: dosed orally in rats; dose-normalized plasma AUC
Method: (§1) Compounds were dosed orally to Sprague-Dawley rats, using appropriate formulations and doses. Serial blood samples were collected at selected time points post-dosing. Plasma was separated from the blood by centrifugation. 25 μL of plasma (sample, standard or QC) was combined with 25 μL of internal standard and 250 μL acetonitrile. Following vortexing to mix, the plates were centrifuged to separate the precipitated proteins. A 50 μL aliquot of the supernatant was transferred to a clean 96-well plate and diluted with 100 μL 0.1% formic acid. Stock standards were prepared in DMSO, with intermediate dilutions in acetonitrile:water (50:50, by volume). Samples were analyzed by LC-MS. The drug level curves were used to calculate dose-normalized area under the curve (AUC/D) data, which are reported as μg-hr/mL per mg/kg.

[2] = Parent vs. metabolite levels in plasma after oral dosing in rats; type: in vivo; settings: oral 20 mg/kg, based on AUC(0-∞), 10 plasma samples over 12 hours, vs 4″-debenzylated metabolite
Method: Pharmacokinetic properties of compounds having three non-hydrogen substituents at the alpha-position of the ester (i.e., a tri-substituted ester) were further examined. A compound having a 4″-tri-substituted ester moiety (Compound 14) was compared to a di-substituted control compound. The compounds were dosed orally, 20 mg/kg, in rats.
Pharmacokinetic properties of compounds having a 4″-benzyl moiety were further examined. A compound having a 4″-halobenzyl moiety (Compound 10) was compared to a compound having an unsubstituted 4″-benzyl moiety. The compounds were dosed orally, 20 mg/kg, in rats.

[3] = test system: E. faecalis ATCC29212; test: Broth microdilution MIC; type: cell-based; settings: Enterococcus faecalis, 35° C., approximately 20 hours
Method: (§2) Minimum inhibitory concentration (“MIC”) values for the isolates were determined using a broth microdilution method. The wells of a standard 96-well microdilution plate (Costar 3795, Corning Inc., Corning, N.Y.) were filled with 150 μL of an appropriate diluent. For test compounds supplied as powders, Column 1 was filled with 300 μL of either the investigational or comparator agents at the appropriate stock concentration (40× the highest test concentration). A Biomek 200 was used to make eleven 2-fold serial dilutions to create a “mother plate”. For compounds supplied as DMSO stocks, compounds were diluted to 50× the highest test concentrations and 2-fold serial dilutions were made manually.
(§3) For compounds supplied as solids, “daughter plates” were loaded with 185 μL using the Multidrop 384. These daughter plates were prepared on the Biomek F/X instrument which transferred 5 μL of drug solution from each well of the mother plate to each corresponding well of each daughter plate in a single step. For compounds supplied as DMSO stock, daughter plates were filled with 90 μL of media and 2 μL of drug solution from each well of the mother plate was added to each corresponding well manually.
(§4) A suspension of standardized inoculum for each organism, equivalent to a 0.5 McFarland standard, was diluted 1:10 in Mueller Hinton II broth resulting in a final concentration of approximately 5×10^5 CFU/mL during testing. Inocula were transferred to compartments of sterile reservoirs divided by length. The Biomek 2000 was used to inoculate all plates. Daughter plates were placed on the Biomek 2000 in reverse orientation so that plates were inoculated from low to high drug concentration. The Biomek 2000 delivered 10 μL of standardized inoculum into each well of the appropriate daughter plate. The final concentration of DMSO (if used as a solvent) in the test wells was 2.5%.
(§5) Plates were stacked 3 high, covered with a lid on the top plate, placed into plastic bags, and incubated at 35° C. for approximately 20 hours. […] MIC values were read where visible growth of the organism was inhibited.

[4] = test system: H. influenza ATCC49247; test: Broth microdilution MIC; type: cell-based; settings: Haemophilus influenzae, 35° C., approximately 20 hours
Method: as §2, §3, §4, §5

[5] = test system: S. aureus ATCC29213; test: Broth microdilution MIC; type: cell-based; settings: Staphylococcus aureus, 35° C., approximately 20 hours
Method: as §2, §3, §4, §5

[6] = test system: S. epidermis ATCC49134; test: Broth microdilution MIC; type: cell-based; settings: Staphylococcus epidermidis, 35° C., approximately 20 hours
Method: as §2, §3, §4, §5

[7] = test system: S. pneumonia ATCC49619; test: Broth microdilution MIC; type: cell-based; settings: Streptococcus pneumoniae, 35° C., approximately 20 hours
Method: as §2, §3, §4, §5

[8] = Pharmacokinetic study, oral dosing in BALB/c mice (AUC/D); type: in vivo; settings: dosed orally in mice; when Compound 43 was dosed, levels of Compound 19 were measured; when Compound 46 was dosed, levels of Compound 10
Method: as §1, with “Alternatively, compounds” for “Compounds”, “BALB/c mice,” for “Sprague-Dawley rats,”
When Compound 43 was dosed, levels of Compound 19 were measured; when Compound 46 was dosed, levels of Compound 10 were measured. Thus, Compounds 43 and 46 serve as prodrugs for Compounds 19 and 10, respectively. Administration of 4′″-modified prodrugs provided greater exposure to the 4′″ deacylated metabolite as compared to administration of the corresponding metabolite itself. […]

[9] = test system: Staphylococcus aureus ATCC 25923; test: Agar disc diffusion assay (zone of inhibition); type: cell-based; settings: 10 μg on 7 mm paper disc (antibacterial standard)
Method: Antibacterial tests were performed on a series of tylosin A derivatives via the ‘agar disc diffusion’ assay. This assay is employed to determine the sensitivity of pathogens to chemical entities under investigation and is a standardized procedure outlined in 1961 by the World Health Organization.
Bacteria tested were a standard gram positive organism; Staphylococcus aureus ATCC 25923 (available from the American Type Culture Collection).
Colonies of bacteria are dispensed into liquid Mueller-Hinton II broth (available from Becton, Dickinson and Company), agitated and then streaked onto prepared Mueller-Hinton agar plates. Bacteria were allowed to grow for 16 hours at 37 degrees C. A sterile loupe was used to select 4-5 isolates from the cultures thus grown, and dispensed into Mueller-Hinton broth. […]
To obtain a dose response curve against Staphylococcus aureus, 20 μL (20 nanomoles) of each tylosin A derivative to be tested as obtained from the company compound repository at 1 mM stock solution in DMSO was dispensed onto a 7 mm blank paper disc (available from BBL, Le Pont du Claire, France). […] At this time, the ‘zone of inhibition’ around each 7 mm paper disc (inclusive of the disc itself) was measured and recorded in Table 6 below.

Row | Molecule | AUC/D [1] [μg-hr/mL per mg/kg] | Parent % [2] [%] | MIC [3] [µg/mL] | MIC [4] [µg/mL] | MIC [5] [µg/mL] | MIC [6] [µg/mL] | MIC [7] [µg/mL] | AUC/D [8] [μg-hr/mL per mg/kg] | Zone of inhibition [9] [mm]
1 | CC[C@H]1OC(=O)C[C@@H](O)[C@H](C)[C@@H](O[C@@H]2O[C@H](C)[C@@H](O[C@H]3C[C@@](C)(O)[C@@H](OCc4ccccc4)[C@H](C)O3)[C@H](N(C)C)[C@H]2O)[C@@H](CC=O)C[C@@H](C)C(=O)/C=C/C(C)=C/[C@@H]1CO[C@@H]1O[C@H](C)[C@@H](O)[C@@H](OC)[C@H]1OC [Compound G, Tylosin A 4″ O-Benzyl] | 0.05 | 95 | 2 (≈ 1.99 µM) | 16 (≈ 15.9 µM) | 4 (≈ 3.98 µM) | 2 (≈ 1.99 µM) | 0.25 (≈ 0.248 µM) | – | –
2 | CC[C@H]1OC(=O)C[C@@H](O)[C@H](C)[C@@H](O[C@@H]2O[C@H](C)[C@@H](O[C@H]3C[C@@](C)(O)[C@@H](O)[C@H](C)O3)[C@H](N(C)C)[C@H]2O)[C@@H](CC=O)C[C@@H](C)C(=O)/C=C/C(C)=C/[C@@H]1CO[C@@H]1O[C@H](C)[C@@H](O)[C@@H](OC)[C@H]1OC [Tylosin A, 2-((4R,5S,6S,7R,9R,11E,13E,15R,16R)-6-(((2R,3R,4R,5S,6R)-5-(((2S,4R,5S,6S)-4,5-dihydroxy-4,6-dimethyltetrahydro-2H-pyran-2-yl)oxy)-4-(dimethylamino)-3-hydroxy-6-methyltetrahydro-2H-pyran-2-yl)oxy)-16-ethyl-4-hydroxy-15-((((2R,3R,4R,5R,6R)-5-hydroxy-3,4-dimethoxy-6-methyltetrahydro-2H-pyran-2-yl)oxy)methyl)-5,9,13-trimethyl-2,10-dioxooxacyclohexadeca-11,13-dien-7-yl)acetaldehyde] | 0.0097 | – | 1 (≈ 1.09 µM) | 16 (≈ 17.5 µM) | 2 (≈ 2.18 µM) | 1 (≈ 1.09 µM) | 0.25 (≈ 0.273 µM) | 0.0054 | –
3 | Gentamicin | – | – | – | – | – | – | – | – | 23
